Data reported in patent publication US9738614B2, “Malignant and non-malignant disease treatment with Ras antagonists” (PISCES THERAPEUTICS, LLC, priority 2011, dated 2017).
pIC50: −log10 of the molar value.

Tests used:
[1] = test system: PANC-1 cells; experiment: Cell proliferation assay for PANC-1 cells; assay type: cell-based; settings: 12.5 μM, media with 5% serum, five days (FIG. 3)
Experimental: (§1) The adult glioblastoma cell line U87MG was obtained from a commercial source (ATCC). The pancreatic cancer cell line PANC-1 was obtained from a local laboratory (Indiana University). Both lines were grown in Iscove's Modified Dulbecco's Medium with 10% fetal bovine serum (FBS) at 37° C. and 5% CO2.
(§2) Compounds (1), (2), (3), (4), and (5), which are shown and described above, were each dissolved in ethanol at 10 mg/mL. A measured portion of the solution was pipetted into a microcentrifuge tube. Then, the ethanol was evaporated from each tube using a SpeedVac®, leaving just the compound in the tube. The appropriate amount of chloroform was added to the tube to produce a 0.1 M concentration. The solutions were placed on ice and in the dark so they could be pipetted into 10- and 20-μL aliquots in 1.5 mL microcentrifuge tubes. The solutions were frozen at […] with lids closed tightly and the tubes covered with foil.
(§3) Prior to treating the cells, a tube of the test compound was removed from the freezer and placed under a biosafety hood to evaporate the chloroform in the tubes. Then, dimethyl sulfoxide (DMSO) was added to the tubes to make the correct concentration to use in the experiment (0.1 M stock). The tubes were vortexed, and warm media with 10% FBS was slowly added to make the correct working concentrations to be used in the experiment. The compounds were directly added to each well for treatment.
The cells were treated in triplicate with standard concentrations of 6.25, 12.5, 25, 50, and 100 μM of each test compound (3) and (5) and the reference compound FTS and, when needed, concentrations of 0.625, 1.25, 2.5 and 5.0 μM in media with 5% serum for five days. Then, the cells were stained with trypan blue, and the cell number per each well was determined. Again, the IC50 values were calculated using Multiplex Reader-Fit software made by MiraiBio Group, Hitachi Solutions America, Ltd. In a typical experiment, the control wells averaged 32,500 cells. The results are presented graphically in FIG. 3. […]

[2] = test system: U87MG cells; experiment: Cell proliferation assay for U87MG cells; assay type: cell-based
Experimental: as §1, §2, §3
U87MG cells were seeded in a 24-well plate, 5000 cells per well, and incubated overnight at 37° C. in serum-free media. The next day they were treated in triplicate with 50 and 100 μM of each test compound (1), (2), (3), (4), and (5) and the reference compound FTS. After five days, the cells were trypsinized (0.5%), stained with trypan blue, and counted to determine the cell number per well. The half-maximal inhibitory concentration (IC50) values were calculated using Multiplex Reader-Fit software made by MiraiBio Group, Hitachi Solutions America, Ltd. In a typical experiment, the control wells averaged 138,000 cells. The results are presented graphically in FIG. 1. The test compounds at 50 μM allowed the following U87MG cell proliferation compared to control: compound (1)—37%, compound (2)—18%, compound (3)—10%, compound (4)—40%, and compound (5)—0%. The reference compound FTS at 50 μM allowed 7% cell proliferation compared to control.
To further evaluate compounds (3) and (5), which inhibited the most cell growth in FIG. 1, more U87MG cells were seeded in 24-well plates, 5000 cells per well, and incubated overnight at 37° C. in serum-free media. The cells were treated the next morning in media with 5% serum in triplicate with standard concentrations of 6.25, 12.5, 25, and 50 μM of each test compound (3) and (5) and the reference compound FTS. After five days of treatment, the cells were trypsinized (0.5%) and then stained with trypan blue. Cells were counted to determine the number of cells per well. Again, the IC50 values were calculated using Multiplex Reader-Fit software made by MiraiBio Group, Hitachi Solutions America, Ltd. In a typical experiment, the control wells averaged 56,000 cells. The results are presented graphically in FIG. 2. The test compounds at 25 μM allowed the following U87MG cell proliferation compared to control: compound (3)—69% and compound (5)—0%. The reference compound FTS at 25 μM allowed over 50% cell proliferation compared to control.
Since the doses of compound (5) used above killed all of the cells, the dose curve was set up again using even lower doses of compound (5). U87MG cells were seeded in 24-well plates, 5000 cells per well, and incubated overnight at 37° C. in serum-free media. The cells were treated in triplicate with 6.25, 12.5, 25, and 50 μM of the reference compound FTS and 0.3125, 0.625, 1.25, 2.5, and 5.0 μM of the test compound (5) in media with 5% serum for five days. Then, the cells were trypsinized (0.5%) and stained with trypan blue, and the cell number per each well was determined. […]

[3] = test system: NF-1-/- S100+ Schwann cells; experiment: NF-1-/- Schwann cell proliferation (visible spectroscopy); assay type: cell-based, mouse; settings: 25-50 μM, 24 hrs after PDGF stimulation (FIG. 5B)
Experimental: (§4) A purified population of NF-1−/−S 100+Schwann cells isolated from a plexiform neurofibroma in a genetically engineered mouse (Zhu, Y. et al., Science, May 2002, 3; 296(5569)):920-922) were stimulated with a maximum stimulating concentration of platelet derived growth factor (PDGF) in the presence of a control or compound (3) at concentrations of 2.5-5 μM. Ras-GTP was measured 3 minutes subsequently using Western blot analysis. […] In parallel experiments, Schwann cell proliferation was measured using visible spectroscopy 24 hrs after PDGF stimulation in the presence of a control or compound (3) at concentrations of 25-50 μM. […] Each asterisk in FIG. 5B represents a statistical difference relative to the control using analysis of variance. (Yang, Feng-Chun, et. al. J Clin Invest 2003, 112(12), 1851-1861; Yang, Feng-Chun, et. al. Hum Mol Genet 2006, 15(11), 1921-1930).

[4] = test system: primary human lung fibroblasts; experiment: Inhibition of TGF-β induced myofibroblast formation (α-SMA Western blot); assay type: cell-based; settings: TGF-β 72 hours, concentrations below 25 μM
Experimental: Primary human lung fibroblasts were stimulated for 72 hours with transforming growth factor beta (TGF-β) to induce their differentiation to an alpha smooth muscle actin (α-SMA) expressing activated myofibroblasts cell fate. […] The activin like kinase receptor (ALK5) inhibitor SB431542 was used as a positive control. Myofibroblast formation was evaluated by Western blot by examining changes in α-SMA levels.

[5] = test system: Ras-GTP; experiment: Ras-GTP Western blot in PDGF-stimulated NF-1-/- Schwann cells; assay type: cell-based, mouse; settings: 2.5-5 μM, 3 minutes after PDGF stimulation (FIG. 5A)
Experimental: as §4

[6] = test system: hematopoietic progenitor cells (cord blood low density cells); experiment: Human hematopoietic progenitor cell toxicity (colony assay); assay type: cell-based; settings: 12 days; 25 and 2.5 μM for compound (3), 2.5 and 0.25 μM for compound (5)
Experimental: Cord blood low density cells were plated at 1×10^5 cells per plate in 1 mL complete methylcellulose in the presence of each test compound (3) and (5) and incubated for 12 days in a CO2 incubator. Colony-forming unit-granulocyte (CFU-GM), burst-forming unit-erythroid (BFU-E), and mixed colonies were counted under an inverted microscope. […] The test compounds were not toxic to the hematopoietic progenitor cells.

[7] = 25 μM, media with 5% serum, five days (FIG. 2)
[8] = 50 μM, five days, trypan blue cell count (FIG. 1)

| Structure (SMILES) | PANC-1 cell proliferation compared to control [1] | U87MG cell proliferation compared to control ([2]; 6.25 μM, media with 5% serum, five days (FIG. 2)) | U87MG cell proliferation compared to control [2, 7] | U87MG cell proliferation compared to control [2, 8] | Schwann cell proliferation relative to the control [3] | inhibition of myofibroblast formation [4] | level of Ras-GTP relative to the control [5] | pIC50 ([2]; Homo sapiens, U-87 MG, value quoted in Example 7, read-out: IC50 as determined on the U87MG cells) | toxicity to hematopoietic progenitor cells (CFU-GM, BFU-E, mixed colonies) [6] |
| --- | --- | --- | --- | --- | --- | --- | --- | --- | --- |
| CC(C)=CCC/C(C)=C/CC/C(C)=C/CSc1ccccc1C(=O)O [FTS, farnesyl-thiosalicylic acid, reference compound] | over 80% | over 80% | over 50% | 7% | – | – | – | – | – |
| CC(C)=CCC/C(C)=C/CC/C(C)=C/CSc1ccccc1-c1nn[nH]n1 [compound (1), 5-(2-{[(2E,6E)-3,7,11-trimethyldodeca-2,6,10-trien-1-yl]sulfanyl}phenyl)-2H-1,2,3,4-tetrazole] | – | – | – | 37% | – | – | – | – | – |
| CC(C)=CCC/C(C)=C/CC/C(C)=C/CSc1ccsc1C(=O)O [compound (3), 3-{[(2E,6E)-3,7,11-trimethyldodeca-2,6,10-trien-1-yl]sulfanyl}thiophene-2-carboxylic acid] | 41% | – | 69% | 10% | reduced | did not inhibit | significantly reduced | 4.60 | not toxic |
| CCOC(=O)c1nnsc1SC/C=C(\C)CC/C=C(\C)CCC=C(C)C [compound (4), Ethyl 5-{[(2E,6E)-3,7,11-trimethyldodeca-2,6,10-trien-1-yl]sulfanyl}-1,2,3-thiadiazole-4-carboxylate] | – | – | – | 40% | – | – | – | – | – |
